Reference: US7332476B2, “Pyridyl substituted ketolide antibiotics” (Novartis AG, priority 2003, dated 2008)
≈ marks a conversion by molar mass, not a printed value.

What was measured:
Experiment in all cases: MIC, broth microdilution (NCCLS)
[1] = tested on: Streptococcus pneumoniae Stpn_49619; assay type: cell-based; settings: Table 7, Strain ID F (Table 6): S. pneumoniae Stpn_49619
Protocol: (§1) Strains. The bacterial isolates listed in Table 4 were cultivated from −70° C. frozen stocks by two consecutive overnight passages (P1, P2) at 35° C. on 5% blood agar (Remel, Lenexa, Kans.). Chocolate agar (Remel) is used for Haemophilus influenzae. H. influenzae and Streptococcus pneumoniae are incubated in 5-10% CO2
(§2) Drug Stock Preparation. To determine the amount of solvent to be used to give the desired final concentration, the formula “weight obtained in mg/final concentration in mg/ml” will be used. It will give the amount of solvent in ml needed to be added to give the desired concentration. For example, if 2.5 mg/ml is the desired concentration and the weight of compound is 13.7 mg, then the amount of solvent to be added is […]. Methanol is used as the solvent to dissolve the test compounds. Further dilution of stock is done in sterile, deionized water. Drug stocks are kept frozen at −70° C., protected from light.
(§3) Susceptibility Testing. MICs are determined by the broth microdilution method in accordance with the NCCLS guidelines. In brief, organism suspensions are adjusted to a 0.5 McFarland standard to yield a final inoculum between 3×10^5 and 7×10^5 CFU/ml. Drug dilutions and inocula are made in sterile, cation adjusted Mueller-Hinton Broth (CAMHB) (Remel) for all but S. pneumoniae [CAMHB with 2-5% lysed horse blood (Remel)] and H. influenzae [Haemophilus Test Medium (Remel)]. An inoculum volume of 100 μl is added to wells containing 100 μl of broth with 2-fold serial dilutions of drug. All inoculated microdilution trays are incubated in ambient air at 35° C. for 18-24 hours, except for S. pneumoniae, and H. influenzae (both at 5-10% CO2).
(§4) Following appropriate incubation, the MIC is determined and the MIC is defined as the lowest concentration of the drug that prevented visible growth.
as §1, with “8” for “4”
(§5) Following appropriate incubation, the MIC is determined and the MIC is defined as the lowest concentration of the drug that prevented visible growth. […] Antibacterial activity of representative compounds of the invention were compared against telitromycin.

[2] = tested on: Streptococcus pyogenes Stpy_8668; assay type: cell-based; settings: Table 7, Strain ID E (Table 6): S. pyogenes Stpy_8668
Protocol: as §1, §2, §3, §4
as §1, with “8” for “4”
as §5

[3] = tested on: Streptococcus pneumoniae Stpn_280-962; assay type: cell-based; settings: Table 7, Strain ID H (Table 6): S. pneumoniae Stpn_280-962
Protocol: as §1, §2, §3, §4
as §1, with “8” for “4”
as §5

[4] = tested on: Streptococcus pneumoniae Stpn_297-749; assay type: cell-based; settings: Table 7, Strain ID G (Table 6): S. pneumoniae Stpn_297-749
Protocol: as §1, §2, §3, §4
as §1, with “8” for “4”
as §5

[5] = tested on: Streptococcus pneumoniae Stpn_Mef S 3427; assay type: cell-based; settings: Table 7, Strain ID L (Table 6): S. pneumoniae Stpn_Mef S 3427
Protocol: as §1, §2, §3, §4
as §1, with “8” for “4”
as §5

[6] = tested on: Enterococcus faecalis Enfa_29212; assay type: cell-based; settings: Table 7, Strain ID D (Table 6): E. faecalis Enfa_29212; in µg/mL (unit assumed)
Protocol: as §1, §2, §3, §4
as §1, with “8” for “4”
as §5

[7] = tested on: Staphylococcus epidermidis Step_14990; assay type: cell-based; settings: Table 7, Strain ID B (Table 6): S. epidermidis Step_14990; in µg/mL (unit assumed)
Protocol: as §1, §2, §3, §4
as §1, with “8” for “4”
as §5

[8] = tested on: Haemophilus influenzae Hain_49247; assay type: cell-based; settings: Table 7, Strain ID M (Table 6): H. influenzae Hain_49247; unit assumed
Protocol: as §1, §2, §3, §4
as §1, with “8” for “4”
as §5

[9] = tested on: Streptococcus pneumoniae Stpn_Erm S 4297; assay type: cell-based; settings: Table 7, Strain ID J (Table 6): S. pneumoniae Stpn_Erm S 4297
Protocol: as §1, §2, §3, §4
as §1, with “8” for “4”
as §5

[10] = tested on: S. pneumoniae Stpn_Erm 6849; assay type: cell-based, Streptococcus pneumoniae; settings: Table 7, Strain ID I (Table 6): S. pneumoniae Stpn_Erm 6849
Protocol: as §1, §2, §3, §4

Q: With `CC[C@H]1OC(=O)[C@H](C)C(=O)[C@H](C)[C@@H](OC2O[C@H](C)C[C@H](N(C)C)[C@H]2O)[C@@](C)(OC)C[C@@H](C)C(=O)[C@H](C)[C@H]2N(CCCCn3cnc4cccnc43)C(=O)O[C@]12CC` (stereo partly drawn) [Example 14, (3aS,4R,7R,9R,10R,11S,13R,15R,15aR)-3a,4-DIETHYL-1-[4-(3H-IMIDAZO[4,5-B]PYRIDIN-3-YL)BUTYL]-11-METHOXY-7,9,11,13,15-PENTAMETHYL-2,6,8,14-TETRAOXOTETRADECAHYDRO-2H-OXACYCLOTETRADECINO[4,3-D][1,3]OXAZOL-10-YL-3,4,6-TRIDEOXY-3-(DIMETHYLAMINO)-D-XYLO-HEXOPYRANOSIDE] as the compound, how does the MIC [1] read?
A: =0.05

Q: And the MIC [2]?
A: =0.05

Q: And the MIC [3]?
A: =0.05

Q: What about the MIC [4] of the same compound?
A: =0.05

Q: What about the MIC [5] of the same compound?
A: =0.05

Q: How did the MIC [1] turn out when `CC[C@H]1OC(=O)[C@H](C)C(=O)[C@H](C)[C@@H](OC2O[C@H](C)C[C@H](N(C)C)[C@H]2O)[C@@](C)(OC)C[C@@H](C)C(=O)[C@H](C)[C@H]2N(CCCCc3ccnc4ccccc34)C(=O)O[C@]12CC` (stereo partly drawn) [Example 15, (3aS,4R,7R,9R,10R,11S,13R,15R,15aR)-3a,4-DIETHYL-11-METHOXY-7,9,11,13,15-PENTAMETHYL-2,6,8,14-TETRAOXO-1-(4-QUINOLIN-4-YLBUTYL)TETRADECAHYDRO-2H-OXACYCLOTETRADECINO[4,3-D][1,3]OXAZOL-10-YL-3,4,6-TRIDEOXY-3-(DIMETHYLAMINO)-D-XYLO-HEXOPYRANOSIDE] was run?
A: =0.05

Q: And the MIC [2]?
A: =0.05

Q: And the MIC [3]?
A: =0.05

Q: What about the MIC [4] of the same compound?
A: =0.05

Q: And the MIC [6]?
A: 0.1

Q: What about the MIC [5] of the same compound?
A: =0.05

Q: And the MIC [7]?
A: 0.2

Q: And the MIC [8]?
A: 3.13 µg/mL (≈ 3.86 µM)

Q: And the MIC ([9]; unit assumed)?
A: 0.1 µg/mL (≈ 0.123 µM)

Q: What does the source list for `CC[C@H]1OC(=O)[C@H](C)C(=O)[C@H](C)[C@@H](OC2O[C@H](C)C[C@H](N(C)C)[C@H]2O)[C@@](C)(OC)C[C@@H](C)C(=O)[C@H](C)[C@H]2N(CCCCc3ccc4ccccc4n3)C(=O)O[C@]12CC` (stereo partly drawn) [Example 18, (3aS,4R,7R,9R,10R,11S,13R,15R,15aR)-3a,4-diethyl-11-methoxy-7,9,11,13,15-pentamethyl-2,6,8,14-tetraoxo-1-(4-quinolin-2-ylbutyl)tetradecahydro-2H-oxacyclotetradecino[4,3-d][1,3]oxazol-10-yl-3,4,6-trideoxy-3-(dimethylamino)-D-xylo-hexopyranoside]?
A: MIC [1]: =0.05; MIC [3]: =0.05; MIC [4]: =0.05; MIC [5]: =0.05

Q: Which MIC [1] does the source give for `CC[C@H]1OC(=O)[C@@](C)(F)C(=O)[C@H](C)[C@@H](OC2O[C@H](C)C[C@H](N(C)C)[C@H]2O)[C@@](C)(OC)C[C@@H](C)C(=O)[C@H](C)[C@H]2N(CCCC(C)(C)n3cnc(-c4cccnc4)c3)C(=O)O[C@]12CC` (stereo partly drawn) [Example 32, (3aS,4R,7S,9R,10R,11S,13R,15R,15aR)-3a,4-diethyl-7-fluoro-11-methoxy-7,9,11,13,15-pentamethyl-1-[4-methyl-4-(4-pyridin-3-yl-1H-imidazol-1-yl)pentyl]-2,6,8,14-tetraoxotetradecahydro-2H-oxacyclotetradecino[4,3-d][1,3]oxazol-10-yl-3,4,6-trideoxy-3-(dimethylamino)-D-xylo-hexopyranoside] here?
A: =0.05

Q: What about the MIC [2] of the same compound?
A: =0.05

Q: What about the MIC [3] of the same compound?
A: =0.05

Q: And the MIC [4]?
A: =0.05

Q: And the MIC [9]?
A: =0.05

Q: How did the MIC [3] turn out when `CC[C@H]1OC(=O)[C@H](C)C(=O)[C@H](C)[C@@H](OC2O[C@H](C)C[C@H](N(C)C)[C@H]2O)[C@@](C)(OC)C[C@@H](C)C(=O)[C@H](C)[C@H]2N(CCCOc3cccc(-c4cccnc4)c3)C(=O)O[C@]12CC` (stereo partly drawn) [Example 35, (3aS,4R,7R,9R,10R,11S,13R,15R,15aR)-3a,4-diethyl-11-methoxy-7,9,11,13,15-pentamethyl-2,6,8,14-tetraoxo-1-[3-(3-pyridin-3-ylphenoxy)propyl]tetradecahydro-1H-oxacyclotetradecino[4,3-d][1,3]oxazol-10-yl-3,4,6-trideoxy-3-(dimethylamino)-D-xylo-hexopyranoside] was run?
A: =0.05

Q: What about the MIC [10] of the same compound?
A: =0.05

Q: What about the MIC [4] of the same compound?
A: =0.05

Q: Which MIC [1] does the source give for `CC[C@H]1OC(=O)[C@H](C)C(=O)[C@H](C)[C@@H](OC2O[C@H](C)C[C@H](N(C)C)[C@H]2O)[C@@](C)(OC)C[C@@H](C)C(=O)[C@H](C)[C@H]2N(CCCC(C)(C)n3cnc4ncccc43)C(=O)O[C@]12CC` (stereo partly drawn) [Example 37, (3aS,4R,7R,9R,10R,11S,13R,15R,15aR)-3a,4-diethyl-1-[4-(1H-imidazo[4,5-b]pyridin-1-yl)-4-methylpentyl]-11-methoxy-7,9,11,13,15-pentamethyl-2,6,8,14-tetraoxotetradecahydro-2H-oxacyclotetradecino[4,3-d][1,3]oxazol-10-yl-3,4,6-trideoxy-3-(dimethylamino)-D-xylo-hexopyranoside] here?
A: =0.05

Q: What about the MIC [2] of the same compound?
A: =0.05

Q: What about the MIC [3] of the same compound?
A: =0.05

Q: And the MIC [4]?
A: =0.05

Q: For `CC[C@H]1OC(=O)[C@H](C)C(=O)[C@H](C)[C@@H](OC2O[C@H](C)C[C@H](N(C)C)[C@H]2O)[C@@](C)(OC)C[C@@H](C)C(=O)[C@H](C)[C@H]2N(CCCC(C)(C)n3cnc4cccnc43)C(=O)O[C@]12CC` (stereo partly drawn) [Example 38, (3aS,4R,7R,9R,10R,11S,13R,15R,15aR)-3a,4-diethyl-1-[4-(3H-imidazo[4,5-b]pyridin-3-yl)-4-methylpentyl]-11-methoxy-7,9,11,13,15-pentamethyl-2,6,8,14-tetraoxotetradecahydro-2H-oxacyclotetradecino[4,3-d][1,3]oxazol-10-yl-3,4,6-trideoxy-3-(dimethylamino)-D-xylo-hexopyranoside], which MIC [1] is on record?
A: =0.05

Q: And the MIC [2]?
A: =0.05

Q: And the MIC [3]?
A: =0.05

Q: What about the MIC [4] of the same compound?
A: =0.05

Q: `C=C[C@]12OC(=O)N(CCCCn3cnc(-c4cccnc4)c3)[C@@H]1[C@@H](C)C(=O)[C@H](C)C[C@](C)(OC)[C@H](OC1O[C@H](C)C[C@H](N(C)C)[C@H]1O)[C@@H](C)C(=O)[C@](C)(F)C(=O)O[C@@H]2CC` (stereo partly drawn) [Example 49, (3aS,4R,7S,9R,10R,11S,13R,15R,15aR)-4-ethyl-7-fluoro-11-methoxy-7,9,11,13,15-pentamethyl-2,6,8,14-tetraoxo-1-[4-(4-pyridin-3-yl-1H-imidazol-1-yl)butyl]-3a-vinyltetradecahydro-1H-oxacyclotetradecino[4,3-d][1,3]oxazol-10-yl-3,4,6-trideoxy-3-(dimethylamino)-D-xylo-hexopyranoside] was tested. Which MIC [1] did it give?
A: =0.05

Q: And the MIC [2]?
A: =0.05

Q: What about the MIC [3] of the same compound?
A: =0.05

Q: What about the MIC [4] of the same compound?
A: =0.05

Q: What about the MIC [5] of the same compound?
A: =0.05

Q: And the MIC [9]?
A: =0.05

Q: What does the source list for `C=C[C@]12OC(=O)N(CCCC(C)(C)n3cnc(-c4cccnc4)c3)[C@@H]1[C@@H](C)C(=O)[C@H](C)C[C@](C)(OC)[C@H](OC1O[C@H](C)C[C@H](N(C)C)[C@H]1O)[C@@H](C)C(=O)[C@@H](C)C(=O)O[C@@H]2CC` (stereo partly drawn) [Example 50, (3aS,4R,7R,9R,10R,11S,13R,15R,15aR)-4-ethyl-11-methoxy-7,9,11,13,15-pentamethyl-1-[4-methyl-4-(4-pyridin-3-yl-1H-imidazol-1-yl)pentyl]-2,6,8,14-tetraoxo-3a-vinyltetradecahydro-1H-oxacyclotetradecino[4,3-d][1,3]oxazol-10-yl-3,4,6-trideoxy-3-(dimethylamino)-D-xylo-hexopyranoside]?
A: MIC [1]: =0.05; MIC [2]: =0.05; MIC [3]: =0.05; MIC [4]: =0.05; MIC [9]: =0.05
